Assay results taken from PubChem BioAssay (NCI).
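Five concentrations, 48 hours, 96-well plates. GI50: concentration for 50% inhibition of growth. TGI marks complete inhibition of growth.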

Tests used:
Assay in all cases: NCI-60 cell line screen, 48 h
HT29 colon = system: HT29 colon
MOLT-4 leukemia = system: MOLT-4 leukemia
M14 melanoma = system: M14 melanoma
MCF7 breast = system: MCF7 breast
SNB-75 CNS = system: SNB-75 CNS
TK-10 renal = system: TK-10 renal
SF-295 CNS = system: SF-295 CNS
A498 renal = system: A498 renal
HOP-92 NSCLC = system: HOP-92 NSCLC
MDA-MB-231 breast = system: MDA-MB-231 breast

Structure (SMILES)	TGI (HT29 colon) [µM]	TGI (MOLT-4 leukemia) [µM]	TGI (M14 melanoma) [µM]	TGI (MCF7 breast) [µM]	TGI (SNB-75 CNS) [µM]	TGI (TK-10 renal) [µM]	TGI (SF-295 CNS) [µM]	TGI (A498 renal) [µM]	TGI (HOP-92 NSCLC) [µM]	GI50 (MDA-MB-231 breast) [µM]	TGI (MDA-MB-231 breast) [µM]	GI50 (HT29 colon) [µM]	GI50 (MOLT-4 leukemia) [µM]	GI50 (M14 melanoma) [µM]	GI50 (A498 renal) [µM]	GI50 (HOP-92 NSCLC) [µM]	GI50 (MCF7 breast) [µM]	GI50 (TK-10 renal) [µM]	GI50 (SF-295 CNS) [µM]	GI50 (SNB-75 CNS) [µM]
O=C(CCCn1ccnc1[N+](=O)[O-])NCCn1cnc([N+](=O)[O-])c1	> 100	> 100	> 100	> 100	> 100	> 100	> 100	–	–	–	–	–	–	–	–	–	–	–	–	–
NNC(=O)CC(=O)Nc1ccccc1F	> 100	> 100	> 100	–	> 100	–	> 100	> 100	> 100	–	–	–	–	–	–	–	–	–	–	–
COc1cc2c(cc1OCCCCC(=O)Nc1ccc(-c3nc4ccccc4s3)cc1)N=C[C@@H]1CCCN1C2=O	7.75	5.52	3.18	3.43	–	7.97	3.37	4.73	4.63	2.08	10.2	2.16	1.63	1.55	1.87	1.72	0.732	3.2	0.556	–
CC(=O)OCCC/C(=C\c1ccc2ccccc2c1)[N+](=O)[O-]	5.59	> 100	3.21	–	2.99	3.4	4.55	2.39	3.17	2.02	4.59	2.3	4.87	1.58	1.04	1.44	–	1.58	1.96	1.45
Cn1c(=O)c(C(c2ccccc2)c2c(O)c3ccccc3n(C)c2=O)c(O)c2ccccc21	> 100	> 100	> 100	–	> 100	> 100	> 100	–	> 100	–	–	–	–	–	–	–	–	–	–	–
CC1SC2=NC3=C(c4ccccc4C3=O)C(c3ccc(Br)cc3)N2C1=O (stereo not drawn)	> 100	> 100	> 100	–	96.9	> 100	> 100	> 100	> 100	–	–	–	–	–	–	–	–	–	–	–
CC1=C(C(=O)Nc2ccccc2C)C(c2ccc(N(C)C)cc2)C(C(=O)Nc2ccccc2C)=C(C)N1	> 100	> 100	–	–	–	> 100	> 100	> 100	–	–	–	–	–	–	–	–	–	–	–	–
COC1=NN2C(OC)(c3ccccc3)c3c(-c4ccccc4)sc(-c4ccccc4)c3C2(c2ccccc2)S1 (stereo not drawn)	> 100	> 100	> 10	–	> 100	> 100	> 100	> 100	> 100	–	–	–	–	–	–	–	–	–	–	–
COc1ccc(-c2cc(-c3ccccc3)c(C#N)c(=O)[nH]2)cc1	> 100	> 100	> 100	–	> 100	> 100	> 100	> 100	> 100	–	–	–	–	–	–	–	–	–	–	–
COc1cc(C)c(C(=O)/C=C/c2cc(OC)c(O)c(OC)c2)cc1O	> 100	> 100	29.9	–	> 100	> 100	> 100	97.5	–	–	–	–	–	–	–	–	–	–	–	–
BrP(NC1CCCCCC1)(c1ccccc1)(c1ccccc1)c1ccccc1	4.66	–	> 100	6.26	–	21.3	12.2	7.26	–	–	16	–	–	–	–	–	–	–	–	–
CC(C)O/C=C1\C(=O)C2(SCCS2)[C@H]2CCCC[C@@H]12	–	46.4	> 100	–	> 100	> 100	–	75	–	–	–	–	–	–	–	–	–	–	–	–
COC(=O)C1CC2(c3ccc(C)cc3)C(c3ccc(C)cc3)=C(c3ccc(C)cc3)C1(c1ccc(C)cc1)S2=O (stereo not drawn)	> 100	> 100	> 100	> 100	29.6	> 100	> 100	50.5	–	> 100	> 100	41.4	> 100	> 100	4.88	–	> 100	> 100	57.6	10.6
CCC[CH2][Sn]1([CH2]CCC)[O]C(=O)C[S]1	8.2	5.46	4.43	–	3.27	2.92	13	–	3.95	–	–	2.83	1.39	2.05	–	1.84	–	1.55	3.61	1.35
O=C1Cc2ccccc2N1/N=C\c1ccc(O)cc1	> 100	> 100	> 100	–	70.5	> 100	> 100	> 100	> 100	–	–	–	–	–	–	–	–	–	–	–
NC(=O)Nc1ccc2ncnc(Nc3ccc(Cl)cc3)c2c1	> 100	84.7	68.6	> 100	61	23.4	> 67.4	16.2	–	13.7	> 61.4	25.3	21.4	24.4	0.896	–	26.9	1.72	19.2	8
COc1cc2ccc(CC#N)cc2cc1OC	> 100	> 100	–	–	–	> 100	> 100	> 100	> 100	–	–	–	–	–	–	–	–	–	–	–
C(=C1\CCC/C(=C/c2ccccc2)C1=NNc1ccccc1)/c1ccccc1	> 100	> 100	> 100	–	> 100	> 100	> 100	> 100	> 100	–	–	–	–	–	–	–	–	–	–	–
CC(C)[C@@H](C(=O)O[C@@H]1/C=C/C(=O)O[C@@H](C)CCC/C=C/[C@@H]2C[C@H](O)C[C@H]21)[N+](C)(C)C	> 100	> 100	> 100	> 100	> 100	> 100	> 100	> 100	–	> 100	> 100	> 100	> 100	> 100	> 100	–	> 100	> 100	> 100	> 100
CNC1=C(C)C(=O)C(C)=C(C(C)(C)CC(=O)n2cc(F)c(=O)[nH]c2=O)C1=O	> 100	> 100	> 100	–	> 100	> 100	> 100	> 100	> 100	–	–	–	–	–	–	–	–	–	–	–
O=C(N/C(=C\c1ccc([N+](=O)[O-])cc1)c1nc2[nH]c(=S)[nH]c(=O)c2[nH]1)c1ccccc1	> 100	> 100	> 100	–	–	> 100	> 100	–	> 100	–	–	–	–	–	–	–	–	–	–	–

Structure (SMILES)	TGI (HT29 colon) [µM]	TGI (MOLT-4 leukemia) [µM]	TGI (M14 melanoma) [µM]	TGI (MCF7 breast) [µM]	TGI (SNB-75 CNS) [µM]	TGI (TK-10 renal) [µM]	TGI (SF-295 CNS) [µM]	TGI (A498 renal) [µM]	TGI (HOP-92 NSCLC) [µM]	GI50 (MDA-MB-231 breast) [µM]	TGI (MDA-MB-231 breast) [µM]	GI50 (HT29 colon) [µM]	GI50 (MOLT-4 leukemia) [µM]	GI50 (M14 melanoma) [µM]	GI50 (A498 renal) [µM]	GI50 (HOP-92 NSCLC) [µM]	GI50 (MCF7 breast) [µM]	GI50 (TK-10 renal) [µM]	GI50 (SF-295 CNS) [µM]	GI50 (SNB-75 CNS) [µM]
O=C1C2Cc3ccccc3CN2C(=O)N1CN1CCN(CN2C(=O)C3Cc4ccccc4CN3C2=O)CC1 (stereo not drawn)	> 100	> 100	–	–	> 100	> 100	> 100	> 100	> 100	–	–	–	–	–	–	–	–	–	–	–
COc1cc(NCC(C#N)C#N)ccc1N=Nc1ccc([N+](=O)[O-])cc1	> 100	> 100	> 100	–	> 100	> 100	> 100	> 100	–	–	–	–	–	–	–	–	–	–	–	–
Cc1cc[c-]cc1.Fc1c[c-]c(-c2ccccn2)c(F)c1.N#CCC[PH+](CCC#N)c1ccccc1.[Pt+2]	17.8	> 100	10.9	17.6	–	36	29.8	8.5	8.05	2.74	7.57	3.24	2.79	2.94	2.18	2.14	2.68	4.45	3.91	–
NC1=CC(=O)C(=O)c2cccnc21	38.7	8.41	6.29	16.8	15.3	68.2	10.3	22.7	–	1.93	18.8	15.1	3.15	1.83	10.2	–	3.74	29.3	2.48	3.02
O=S(=O)(NC(=S)Nc1ccccc1)c1ccc(N2N=C3c4ccccc4CC3C2c2ccc(Cl)cc2)cc1 (stereo not drawn)	> 100	39.3	> 100	54.3	> 100	99.4	> 100	–	40.2	87.1	> 100	41.6	15.9	36.4	–	18.1	23.5	30.2	35.5	39.7
CCCNC(=O)c1cc2ccccc2cc1C(=O)OC	> 100	> 100	> 100	–	75.8	> 100	> 100	> 100	> 100	–	–	–	–	–	–	–	–	–	–	–
N/C(=N\OC(=O)NC(Cl)=C(Cl)Cl)c1cc(C(F)(F)F)cc(C(F)(F)F)c1	34.4	29.6	70.4	> 100	–	30.4	34.8	32.3	35.1	–	34.2	–	–	–	–	–	–	–	–	–
CCOC(=O)CNC(SC)=C(C#N)C#N	> 100	> 100	> 100	–	> 100	> 100	> 100	> 100	> 100	–	–	–	–	–	–	–	–	–	–	–
O=C1C2C(C(=O)[N]1[Hg][c]1ccccc1)C1(Cl)C(Cl)=C(Cl)C2(Cl)C1(Cl)Cl (stereo not drawn)	4.25	8.76	2.43	–	2.92	2.86	36	11.9	3.97	–	–	1.81	1.88	1.16	2.45	1.87	–	1.51	12.4	1.33
O=C1c2c(c3c4ccccc4n4c3c3c2c2ccccc2n3C/C=C\C4)C(=O)N1Cc1ccccc1	> 100	> 100	> 100	–	68.9	> 100	> 100	> 100	–	–	–	–	–	–	–	–	–	–	–	–
COc1cc2c(c3oc(-c4ccc5c(c4)OCO5)c(O)c(=O)c13)CCC(C)(C)O2	> 100	> 100	> 100	–	> 100	> 100	> 100	> 100	–	–	–	–	–	–	–	–	–	–	–	–
CCOC(=O)c1c(-c2[nH]c(C(=O)OCc3ccccc3)c(C)c2C(=O)OCC)[nH]c(C(=O)OCc2ccccc2)c1C	> 100	> 100	> 100	–	77.2	> 100	> 100	> 100	> 100	–	–	–	–	–	–	–	–	–	–	–
COc1ccc(CNc2nc3ccccc3nc2-c2cccs2)cc1OC	> 100	> 100	–	–	–	> 100	> 100	–	51.3	–	–	–	–	–	–	–	–	–	–	–
O=C(O)c1cn(C2CC2)c2cc(N3CCN(S(=O)(=O)c4ccc(Cl)c(Cl)c4)CC3)c(F)cc2c1=O	> 100	> 100	> 100	> 100	–	> 100	–	> 100	5.71	–	–	3.77	4	4.06	2.91	1.54	2.84	4.31	–	–
CSc1nc2c(nc(N)n2C2OCC(O)C(O)C2O)c(=O)[nH]1 (stereo not drawn)	> 100	> 100	> 100	–	> 100	> 100	> 100	> 100	> 100	–	–	–	–	–	–	–	–	–	–	–
O=C1c2cnccc2Cc2cccc3c2N1c1ccccc1S3	74.8	> 100	58.8	–	48.5	–	63.2	69.8	38.5	–	–	–	–	–	–	–	–	–	–	–
COc1cc(C/C=C/c2ccccc2)c(OC)cc1O	37.8	52.8	46.4	–	77.6	38.6	–	> 100	33	–	52.9	–	–	–	–	–	–	–	–	–
Cc1cc(C)cc(Nc2nccc(-c3c(-c4ccc(F)cc4)ncn3C3CCNCC3)n2)c1	2.43	5.32	3.18	2.09	5.24	2.95	3.58	–	3.53	1.5	3.09	0.78	2.03	1.59	–	1.34	0.566	0.717	1.85	1.25
OCCc1cnco1	> 100	> 100	> 100	–	> 100	> 100	> 100	–	–	–	–	–	–	–	–	–	–	–	–	–
COc1cc(C2[C@H]3C(=O)N(c4ccc(Cc5ccc(N6C(=O)[C@@H]7ON(c8ccccc8)C(c8cc(OC)c(OC)c(OC)c8)[C@@H]7C6=O)cc5)cc4)C(=O)[C@H]3ON2c2ccccc2)cc(OC)c1OC (stereo partly drawn)	> 100	> 100	48.6	–	> 100	> 100	> 100	> 100	–	–	–	–	–	–	–	–	–	–	–	–
